Experimental findings from PubChem BioAssay AID2060500 (Molecular Pharmacology Branch, DTP, NCI, 2025) are described below.

“And” between values parts separate entries of the source, which are not always exact repeats. Equal values may be shown once.

As a reminder, the viability, T/C is the result in the treated group divided by that in the control group, in per cent. The term IC50 denotes the concentration at which inhibition is half-maximal.

This experiment concerns 596521-263-R-J1-PDC complex spheroids, viability % of control. Description: Anticancer human tumor 596521-263-R-J1-PDC patient-derived soft tissue sarcoma cell line growth inhibition [GQUAD]. Conditions: for viability, T/C: stronger effect = lower value. An outline of the steps: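 Multi-cell-type spheroids of tumor cells with HUVEC and mesenchymal stem cells, treated with drug combinations. Concentrations descend in half-log steps from near clinical Cmax, or from 10 microM where Cmax is unknown; viability read-out.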

Setting [1] is: curve of first compound, second compound 0.0316 µM.
The mark [2] stands for this setting: curve of first compound, second compound 0.1 µM.
[3] abbreviates: curve of first compound, second compound 0.316 µM.
The mark [4] stands for this setting: curve of first compound, second compound 1 µM.
Setting [5] is: curve of first compound, second compound 3.16 µM.
Where [6] appears, read: curve of first compound, second compound 10 µM.
Setting [7] is: second compound 0.0316 µM, first compound 0.0316 µM.
Setting [8] is: second compound 0.0316 µM, first compound 0.1 µM.
[9] abbreviates: second compound 0.0316 µM, first compound 0.316 µM.
Setting [10] is: second compound 0.0316 µM, first compound 1 µM.
The mark [11] stands for this setting: second compound 0.0316 µM, first compound 3.16 µM.
[12] abbreviates: second compound 0.0316 µM, first compound 10 µM.
Setting [13] is: second compound 0.1 µM, first compound 0.0316 µM.
Setting [14] is: second compound 0.1 µM, first compound 0.1 µM.
The mark [15] stands for this setting: second compound 0.1 µM, first compound 0.316 µM.
Where [16] appears, read: second compound 0.1 µM, first compound 1 µM.
Setting [17] is: second compound 0.1 µM, first compound 3.16 µM.
The mark [18] stands for this setting: second compound 0.1 µM, first compound 10 µM.
The mark [19] stands for this setting: second compound 0.316 µM, first compound 0.0316 µM.
Where [20] appears, read: second compound 0.316 µM, first compound 0.1 µM.
Where [21] appears, read: second compound 0.316 µM, first compound 0.316 µM.
Setting [22] is: second compound 0.316 µM, first compound 1 µM.
[23] abbreviates: second compound 0.316 µM, first compound 3.16 µM.
Where [24] appears, read: second compound 0.316 µM, first compound 10 µM.
Where [25] appears, read: second compound 1 µM, first compound 0.0316 µM.
Where [26] appears, read: second compound 1 µM, first compound 0.1 µM.
Where [27] appears, read: second compound 1 µM, first compound 0.316 µM.
Setting [28] is: second compound 1 µM, first compound 1 µM.
The mark [29] stands for this setting: second compound 1 µM, first compound 3.16 µM.
Where [30] appears, read: second compound 1 µM, first compound 10 µM.
Setting [31] is: second compound 3.16 µM, first compound 0.0316 µM.
Setting [32] is: second compound 3.16 µM, first compound 0.1 µM.
[33] abbreviates: second compound 3.16 µM, first compound 0.316 µM.
The mark [34] stands for this setting: second compound 3.16 µM, first compound 1 µM.
The mark [35] stands for this setting: second compound 3.16 µM, first compound 3.16 µM.
[36] abbreviates: second compound 3.16 µM, first compound 10 µM.
Setting [37] is: second compound 10 µM, first compound 0.0316 µM.
Where [38] appears, read: second compound 10 µM, first compound 0.1 µM.
Setting [39] is: second compound 10 µM, first compound 0.316 µM.
[40] abbreviates: second compound 10 µM, first compound 1 µM.
[41] abbreviates: second compound 10 µM, first compound 3.16 µM.
Where [42] appears, read: second compound 10 µM, first compound 10 µM.
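Further: spheroids exposed to drugs for 7 days before viability reading.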
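Wherever viability, T/C is given: 100% = DMSO vehicle control viability.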

Consider `CC(C)n1c(=O)n(C)c2cnc3cc(F)c(-c4ccc(OCCCN5CCCCC5)nc4)cc3c21`, for which the viability, T/C (compound 0.0316 µM) was 95.5% and 105% and 103%; the viability, T/C (compound 0.1 µM) is 92.9% and 102% and 101%; the viability, T/C (compound 0.316 µM) was 82.4% and 94.7% and 101%; the viability, T/C (compound 1 µM) was 91.1% and 106% and 92%; the viability, T/C (compound 3.16 µM) was 81.2% and 87.7% and 86.1%; the viability, T/C (compound 10 µM) was 61.1% and 71.2% and 64.3%. Also, the IC50 (curve of compound) was above 10 µM.

Take `O=C(c1cc(Cc2n[nH]c(=O)c3ccccc23)ccc1F)N1CCN(C(=O)C2CC2)CC1`: the viability, T/C by setting is: (compound 0.0316 µM) 102% and 96.8% and 103%; (compound 0.1 µM) 95.1% and 97.1% and 87.4%; (compound 0.316 µM) 87.9% and 88.9% and 100%; (compound 1 µM) 89.7% and 89.3% and 95.3%; (compound 3.16 µM) 92.5% and 79.6% and 86.6%; (compound 10 µM) 68.4% and 67.2% and 66.9%. Besides, the IC50 (curve of compound) was above 10 µM.

As for `O=c1[nH]cc(F)c(=O)[nH]1`, the viability, T/C (compound 0.0316 µM) is 95.6% and 102% and 106%; the viability, T/C (compound 0.1 µM) was 105% and 100% and 94.9%; the viability, T/C (compound 0.316 µM) is 105% (2×) and 107%; the viability, T/C (compound 1 µM) is 98.4% and 114% and 99.3%; the viability, T/C (compound 3.16 µM) was 94.5% and 97.5% and 97.7%; the viability, T/C (compound 10 µM) was 97.2% and 97.8% and 93.8%. Besides, under “curve of compound”, the IC50 was above 10 µM.

In the case of `COc1cc(C2c3cc4c(cc3C(OC3OC5COC(C)OC5C(O)C3O)C3COC(=O)C23)OCO4)cc(OC)c1O` (stereo not drawn), the viability, T/C is 107% and 103% (2×) (compound 0.0316 µM); 87% and 88.9% and 88.6% (compound 0.1 µM); 87.5% and 92% and 89.4% (compound 0.316 µM); 60.7% and 62.7% and 57.5% (compound 1 µM); 58.4% and 54.6% and 68.8% (compound 3.16 µM); 43.3% and 45.5% and 49.7% (compound 10 µM). The IC50 (curve of compound) was 5.48 µM and 4.38 µM and > 10 µM.

For `O=c1[nH]cc(F)c(=O)[nH]1` + Cc1[nH]c2ccc(F)cc2c1-c1nc2c3cccnc3c3ncccc3c2[nH]1, the IC50 by setting is: under setting [1], above 10 µM; under setting [2], above 10 µM; under setting [3], above 10 µM; under setting [4], above 10 µM; under setting [5], above 10 µM; under setting [6], above 10 µM. Besides, the viability, T/C is 98.4% under setting [7]; 105% under setting [8]; 100% under setting [9]; 101% under setting [10]; 101% under setting [11]; 98.3% under setting [12]. For the same compound, the viability, T/C was 100% under setting [13]; 101% under setting [14]; 101% under setting [15]; 105% under setting [16]; 94.9% under setting [17]; 95.1% under setting [18]. The viability, T/C under setting [19] was 90.8%; the viability, T/C under setting [20] was 104%; the viability, T/C under setting [21] was 106%; the viability, T/C under setting [22] is 113%; the viability, T/C under setting [23] was 118%; the viability, T/C under setting [24] was 81.8%. Moreover, the viability, T/C is 100% under setting [25]; 96.6% under setting [26]; 100% under setting [27]; 88.9% under setting [28]; 93.9% under setting [29]; 86.6% under setting [30]. For the same compound, the viability, T/C under setting [31] is 96%; the viability, T/C under setting [32] is 95.4%; the viability, T/C under setting [33] is 88.5%; the viability, T/C under setting [34] was 86.7%; the viability, T/C under setting [35] was 89.1%; the viability, T/C under setting [36] is 82.4%. Also, the viability, T/C was 63.3% under setting [37]; 70.6% under setting [38]; 80.7% under setting [39]; 77.5% under setting [40]; 76.4% under setting [41]; 72.4% under setting [42].

For the compound `CC(C)(O)C1CCC(Nc2ccc3ncc(-c4cccc(C(F)(F)F)c4)n3n2)CC1` (stereo not drawn), the viability, T/C was 106% and 99.4% and 95.7% (compound 0.0316 µM); 98.4% and 97.7% and 91.8% (compound 0.1 µM); 103% and 93.5% and 85.9% (compound 0.316 µM); 97.1% and 55.2% and 69.5% (compound 1 µM); 108% and 10.6% and 16.7% (compound 3.16 µM); 84% and 18.1% and 15.5% (compound 10 µM). Also, the IC50 (curve of compound) is > 10 µM and 1.16 µM and 1.54 µM.

`CN(C)c1ccc(Nc2c3ccc(NC(=O)CCN4CCCC4)cc3nc3cc(NC(=O)CCN4CCCC4)ccc23)cc1`: the viability, T/C is 102% [middle of 12 runs] (compound 0.0316 µM); 105% [middle of 12 runs] (compound 0.1 µM); 104% [middle of 12 runs] (compound 0.316 µM); 105% [middle of 12 runs] (compound 1 µM); 95.9% [middle of 12 runs] (compound 3.16 µM); 67% [middle of 12 runs] (compound 10 µM). For the same compound, the IC50 (compound alone, run of 04/22/2024) is above 10 µM.

`CC1COCCN1c1cc(C2(S(C)(=N)=O)CC2)nc(-c2ccnc3[nH]ccc23)n1` (stereo not drawn) + Cc1[nH]c2ccc(F)cc2c1-c1nc2c3cccnc3c3ncccc3c2[nH]1: the 50% inhibitory concentration (IC50) is, setting by setting: under setting [1], above 10 µM; under setting [2], 8.24 µM; under setting [3], 7.65 µM; under setting [4], above 10 µM; under setting [5], 6.02 µM; under setting [6], 4.76 µM. For the same compound, the viability, T/C by setting is: under setting [7], 94.5%; under setting [8], 92.9%; under setting [9], 92.1%; under setting [10], 79.2%; under setting [11], 64.5%; under setting [12], 50.9%. Further, the viability, T/C is 104% under setting [13]; 95.5% under setting [14]; 90.8% under setting [15]; 79.6% under setting [16]; 63.1% under setting [17]; 47.2% under setting [18]. For the same compound, the viability, T/C under setting [19] is 100%; the viability, T/C under setting [20] was 111%; the viability, T/C under setting [21] was 98.5%; the viability, T/C under setting [22] was 84.5%; the viability, T/C under setting [23] is 62.6%; the viability, T/C under setting [24] is 46.1%. In addition, the viability, T/C is 94.5% under setting [25]; 92.8% under setting [26]; 85.5% under setting [27]; 86.1% under setting [28]; 67.9% under setting [29]; 51.4% under setting [30]. The viability, T/C reads like this: under setting [31], 80.3%; under setting [32], 89%; under setting [33], 87.2%; under setting [34], 65.6%; under setting [35], 62.6%; under setting [36], 42.1%. The viability, T/C is, setting by setting: under setting [37], 80.5%; under setting [38], 72.6%; under setting [39], 81%; under setting [40], 61.7%; under setting [41], 55.3%; under setting [42], 43.9%.

As to `CCc1c2c(nc3ccc(O)cc13)-c1cc3c(c(=O)n1C2)COC(=O)[C@]3(O)CC` + Cc1[nH]c2ccc(F)cc2c1-c1nc2c3cccnc3c3ncccc3c2[nH]1, the IC50 under setting [1] stood at 0.00602 µM; the IC50 under setting [2] amounted to 0.00791 µM; the IC50 under setting [3] turned out to be 0.00532 µM; the IC50 under setting [4] is 0.00842 µM; the IC50 under setting [5] stood at 0.00426 µM; the 50% inhibitory concentration (IC50) under setting [6] was determined as 0.00837 µM. For the same compound, the viability, T/C is, setting by setting: (second compound 0.0316 µM, first compound 0.000999 µM) 65.8%; (second compound 0.0316 µM, first compound 0.00316 µM) 54.8%; (second compound 0.0316 µM, first compound 0.00999 µM) 45.7%; under setting [7], 34.3%; (second compound 0.0316 µM, first compound 0.0999 µM) 19.2%; under setting [9], 9.24%. The viability, T/C runs as follows: (second compound 0.1 µM, first compound 0.000999 µM) 57.3%; (second compound 0.1 µM, first compound 0.00316 µM) 61.5%; (second compound 0.1 µM, first compound 0.00999 µM) 47.4%; under setting [13], 31.1%; (second compound 0.1 µM, first compound 0.0999 µM) 21.5%; under setting [15], 7.09%. In addition, the viability, T/C by setting is: (second compound 0.316 µM, first compound 0.000999 µM) 71.4%; (second compound 0.316 µM, first compound 0.00316 µM) 54.4%; (second compound 0.316 µM, first compound 0.00999 µM) 44%; under setting [19], 30.1%; (second compound 0.316 µM, first compound 0.0999 µM) 16.1%; under setting [21], 9.37%. Moreover, the viability, T/C runs as follows: (second compound 1 µM, first compound 0.000999 µM) 67%; (second compound 1 µM, first compound 0.00316 µM) 58.4%; (second compound 1 µM, first compound 0.00999 µM) 50.3%; under setting [25], 29.6%; (second compound 1 µM, first compound 0.0999 µM) 17.5%; under setting [27], 7.61%. Further, the viability, T/C by setting is: (second compound 3.16 µM, first compound 0.000999 µM) 61.8%; (second compound 3.16 µM, first compound 0.00316 µM) 52.3%; (second compound 3.16 µM, first compound 0.00999 µM) 42.1%; under setting [31], 31.3%; (second compound 3.16 µM, first compound 0.0999 µM) 18.8%; under setting [33], 8.52%. Also, the viability, T/C reads like this: (second compound 10 µM, first compound 0.000999 µM) 56.8%; (second compound 10 µM, first compound 0.00316 µM) 59.2%; (second compound 10 µM, first compound 0.00999 µM) 48.6%; under setting [37], 29.9%; (second compound 10 µM, first compound 0.0999 µM) 17%; under setting [39], 8.36%.
